Reference: patent US7357916B2, “Method for creating a uniform vascular wound in zebrafish or zebrafish larva” (priority 2002, dated 2008)
Where two headings read alike, the source gives them in different places.

How the values were obtained:
zebrafish larvae [1] = assay: Vascular occlusion by laser irradiation, time to occlusion (TTO); type: in vivo; conditions: normal TTO 17±5.0 seconds; for Time to occlusion (TTO), laser irradiation assays: embryos microinjected with morpholino, screened at 3 dpf
Procedure: For laser irradiation treatment, 1 to 5 larvae (3 mm) were placed in 250 μL of water and anesthetized with 10 μl of Tricaine solution (300 μmol/L, Sigma, MO). 250 μL of 1% low-melting agarose solution (at 40° C.) were added to the anesthetized larvae and each larva, along with approximately 100 μL of agarose solution, was positioned inside a viewing well that was formed by placing a plastic ring on a glass microscope slide. Before treatment, water was allowed to soak into the agarose blocks to wash out the anesthetic. Pulsed nitrogen laser light pumped through coumarin 440 dye (445 nm) (MicroPoint Laser system, Photonic Instruments Inc, IL) at seven pulses/second was delivered to larvae for five seconds through a 10× objective on a Nikon Optiphot microscope. The progress of occlusion was recorded using a Nikon CoolPix 995 CCD camera.
Larvae at 2 and 3 dpf were treated with warfarin as described (Hanumanthaiah et al., 2001, specifically incorporated herein by reference) for 24 hours. Larvae were rinsed in water and tested with either chemical or laser methods of vessel injury. Morpholinos (Discovery Genomics Inc.) were designed against 5′-UTR around the translational start site of zebrafish factor VII (Sheehan et al., 2001, specifically incorporated herein by reference or factor VIIi (Hanumanthaiah et al., 2002, specifically incorporated herein by reference). Sequences were as follows:
For each morpholino a working solution (2 mg/mL) was prepared as previously described (Nasevicius & Ekker, 2000, specifically incorporated herein by reference). Embryos were generated by in vitro fertilization as described (Westerfield, 2000, specifically incorporated herein by reference) and 9 nL of either morpholino solution were injected into the yolk of embryos at the single to four cell stages. Control embryos were microinjected with an equal volume of PBS. Embryos were maintained at 28° C. and screened at 3 dpf.

zebrafish larvae [2] = system: zebrafish larvae
Procedure: (§1) For screening studies, larvae at three to five days postfertilization (dpf) were placed in 500 μL of water and an equal volume of phenylhydrazine (40 mmol/L phenylhydrazine HCl (PHZ), Sigma, MO) or FeCl3 (40 mmol/L) solution was added. Each larva, along with 9 μL of solution, was placed in a 3 mm×1 mm×3 mm well of an acrylic viewing chamber (narrow wells limited the motion of larvae for better viewing). For recording purposes, larvae were also immobilized in agarose, as described below, and 100 μl of either FeCl3 or PHZ were layered on top of the agarose block. Vascular occlusion was recorded using an inverted Olympus microscope equipped with a Javelin MOS solid-state camera (Japan) connected to a VHS recorder.

zebrafish larvae [3] = assay: Vascular occlusion with phenylhydrazine, time to occlusion (TTO); type: in vivo
Procedure: as §1

erythrocytes = assay: Annexin V binding, flow cytometry of blood cells from treated adult zebrafish; type: in vivo; conditions: 5 mmol/L for five minutes, FITC annexin V
Procedure: Adult zebrafish were placed in a 500 mL solution of phenylhydrazine (5 mmol/L phenylhydrazine HCl, pH 7.2 in 20 mmol/L Tris) or FeCl3 (5 mmol/L) for five minutes and then rinsed with de-ionized water. Two μL of blood were collected, as described (Jagadeeswaran et al., 2000a, specifically incorporated herein by reference), from control or treated zebrafish and blood cells were isolated by centrifugation of the blood sample at 800 g for two minutes, followed by removal of the supernatant. The cell pellet was washed once with 200 μL of PBS, centrifuged and resuspended in 200 μL of binding buffer (ApoAlert; Clontech, Calif.) followed by addition of 5 μL of FITC conjugated Annexin-V (Clontech, Calif.). Samples were incubated for ten minutes in dark at 25° C. and visualized ulsing a 20× UplanApo objective on an Olympus FV500 confocal microscope or processed by flow cytometry (Gregory & Jagadeeswaran, 2002).

[4] = larvae treated with warfarin for 24 hours

For “5′-CAAGCAGCAGACTC ATATTTACTGC-3′ (SEQ ID NO:1) (antisense CAAGCAGCAGACTCATATTTACTGC; all phosphorodiamidate morpholino (PMO)) [FVIIas]”, the “Time to occlusion (TTO), laser irradiation assays” value (zebrafish larvae [1]) was 55 ± 9 s.
With “5′-GTCACTGACCTCAGCCTGTTCACAA-3′ (SEQ ID NO:2) (morpholino, further chemistry not given here) [FVIIias]” the “Time to occlusion (TTO), laser irradiation assays” value (zebrafish larvae [1]) was 9 ± 3 s.
[Cl][Fe]([Cl])[Cl] [FeCl3, ferric chloride] was tested, and the “Time to occlusion (TTO) induced by the agent, mean±standard deviation” value (zebrafish larvae [2]; wild type larvae at three dpf, n=1000) was 6 ± 2 min.
CC(=O)CC(c1ccccc1)c1c(O)c2ccccc2oc1=O (centres unmarked) [Warfarin, warfarin] was tested, and the “Time to occlusion (TTO), FeCl3 injury” value (zebrafish larvae [2]; larvae treated with warfarin for 24 hours, normal TTO 6±2 minutes) was greater than 10 min, the “Effect on TTO in phenylhydrazine induced vascular occlusion” value (zebrafish larvae [3]; [4]) was “did not affect TTO” and the “Time to occlusion (TTO), laser irradiation injury” value (zebrafish larvae [1]; [4]) was greater than 1 min.
Cl.NNc1ccccc1 [phenylhydrazine, phenylhydrazine HCl] was tested, and the “Erythrocytes exhibiting externalization of PS” value (erythrocytes) was “approximately 18%” and the “Time to occlusion (TTO) induced by the agent, mean±standard deviation” value (zebrafish larvae [3]; wild type larvae at four dpf, n=500) was 10 ± 2.5 min.
